In brackets after ≈: the same amount, converted by molar mass. Like-named read-outs stand apart in the source and are kept apart here.
Tests used:
[1] = system: intracellular tyrosine kinase (v-Src tyrosine kinase, SR-3Y1 cells); test: Inhibition test of intracellular tyrosine kinase (tyrosine phosphorylation, Western blotting, SR-3Y1 cells); assay type: cell-based; conditions: Rattus norvegicus, SR3Y1, 37° C., 15 hours, tyrosine-phosphorylated protein, read-out: IC50, inhibitory activity of intracellular tyrosine kinase
Description: The inhibitory effect of the tyrosine kinase activity can be measured by carrying out Western blotting analysis with an anti-phosphotyrosine antibody using a rat fibroblast cell strain SR-3Y1 transformed with an oncogene v-Src (available from RIKEN Gene Bank) and calculating the amount of intracellular protein in which tyrosine is phosphorylated. Since the tyrosine phosphorylation level of intracellular protein in SR-3Y1 cells for use in this method is increased by v-Src tyrosine kinase, the ability of radicicol derivatives to inhibit v-Src tyrosine kinase can be detected as reduction of the amount of protein in which tyrosine is phosphorylated. Robinson, S. P. et al. [International Journal of Oncology, 2, 253 (1993)] report a method for examination of tyrosine phosphorylation inhibition effect by Western blotting analysis, and Kwon, H. J. et al. [Cancer Research, 52, 6926 (1992)] report examples of experiment using SR-3Y1 cells.
Inhibition Test of Intracellular Tyrosine Kinase
SR-3Y1 cells were cultured at 37° C. for 15 hours in an atmosphere of 5% carbon dioxide, using Dulbecco's modified Eagle's medium (DMEM) containing 10% fetal calf serum (FCS), to which each radicicol derivative to be tested has been added in varied concentration. The thus cultured cells were lysed at 4° C. for 20 minutes in a cooled buffer solution for lysis use (50 mM Tris HCl, pH 7.5, 150 mM NaCl, 1% Triton X-100, 0.1% SDS, 1% sodium deoxycholate, 2 mM EDTA, 1 mM PMSF, 20 μM leupeptin, 0.15 unit/ml aprotinin, 1 mM Na3 VO4) and then centrifuged at 20,000 g for 30 minutes. After measuring protein concentration in the resulting supernatant fluid, samples were adjusted to the same protein quantity per lane to carry out separation of protein by SDS-PAGE. The thus separated protein samples were transferred onto a nitrocellulose membrane to which were subsequently added a mouse […] phosphotyrosine antibody MX-pTYR (Kyowa Medex Co., Ltd.) as a first antibody and a horseradish peroxidase-conjugated […] (BIO-RAD Co.) as a second antibody, thereby effecting their reactions with the protein samples on the membrane. Detection was carried out using ECL reagent (Amersham Co.), and the amount of tyrosine-phosphorylated protein was determined by scanning the density of banks obtained on an X-ray film. The activity of radicicol derivative to inhibit tyrosine phosphorylation can be shown as a concentration (IC50) of each derivative by which the ratio of tyrosine-phosphorylated protein is reduced to half in comparison with a control to which the drug is not added.

HeLa S3 cells = test: Cell growth inhibition test on HeLa S3 cells; assay type: cell-based; conditions: Homo sapiens, read-out: IC50, cell growth inhibition activity upon HeLa S3 cells
Method: Cell Growth Inhibition Test on HeLa S3 Cells
HeLa S3 cells which have been adjusted to 3.0×10^4 cells/ml with MEM medium (manufactured by Nissui Pharmaceutically containing 10% fetal calf serum and 2 mM […] were dispensed in 0.1 ml/well portions into a 96 well microtiter plate. The cells were cultured at 37° C. for 20 hours in a carbon dioxide gas incubator, the culture supernatant was removed and then the plate was washed once with physiological saline. Next, 0.1 ml of the medium containing each test compound was added to each well, and the cells were cultured at 37° C. for 72 hours in the carbon dioxide gas incubator. After removing the culture supernatant, 0.1 ml of the medium containing 0.02% Neutral Red was added to each well, and the cells were stained at 37° C. for 1 hour in the carbon dioxide gas incubator. After removing the culture supernatant, the plate was washed once with physiological saline, the pigment was extracted with 0.001 N hydrochloric acid/30% ethanol and then absorption at 550 nm was measured by a microplate reader. The concentration of each test compound which inhibits 50% of the cell growth (IC50) was calculated by comparing the absorption of un-treated cells with that of the cells treated with known concentration of each sample.

P388 leukemia = test: Antitumor test on P388 leukemia; assay type: in vivo, mouse; conditions: CDF1 mice, 1×10^6 P388 cells i.p., compound into abdominal cavity 24 hours after transplantation, 30 days; dose not given
Method: Antitumor Test on P388 Leukemia
The ascitic fluid was collected from the abdominal cavity of P388 ascites-induced mouse (DBA/2) 7 days after the transplantation. The number of P388 cells in the ascitic fluid was counted to prepare a tumor cell suspension of 5×10^6 cells/ml using sterilized physiological saline, and its 0.2 ml portion (containing 1×10^6 cells) was transplanted into the abdominal cavity of CDF1 mice having 20 to 25 g in body weight. […] Effects of the test compounds were judged by the ratio of average survival days in the test compound-administered group to that in the control group (un-treated group) (increased life span, ILS %).

sarcoma 180 solid tumor = test: Antitumor test on sarcoma 180 solid tumors; assay type: in vivo, mouse; conditions: ddY mice, intravenous injection 24 hours after s.c. transplantation, tumor volume at 7 days; dose not given
Method: Antitumor Test on Sarcoma 180 Solid Tumors
Seven days after transplantation of 5×10^6 of sarcoma 180 cells into the abdominal cavity of a ddY mouse, the cells were collected from the ascitic fluid, washed once with sterilized physiological saline and then made into a cell suspension of 5×10^7 cells/ml using sterilized physiological saline. A 0.1 ml portion of the cell suspension was transplanted under the skin of the right side axillary part of ddY mice of 20±2 g in body weight and, after 24 hours of the tumor transplantation, 0.1 to 0.2 ml of each test compound dissolved in physiological saline or polyoxyethylene sorbitan monolaurate-containing physiological saline was administered by intravenous injection to ddY mice of 5 animals per group. The major axis (a) and the minor axis (b) of each tumor 7 days after the transplantation were measured to calculate the tumor volume as an a×b^2 /2 value. Antitumor activity of each test compound was expressed by the ratio (T/C) of the tumor volume (T) of the test compound-administered group to the tumor volume (C) of the control group in which the drug was not administered.

[2] = system: Eacillus subtilis No. 10707; test: Antibacterial activity test (agar dilution method); assay type: cell-based; conditions: pH 7, Eacillus subtilis No. 10707, read-out: Minimum growth inhibition concentration (MIC), BS
Method: (§1) Antibacterial Activity Test
(§2) the antibacterial activity was measured by an agar dilution method using a medium (pH 7) which has been prepared by dissolving 3 g of Bacto-Tryptone (manufactured by Difco), 3 g of meat extract, 1 g of yeast extract, 1 g of flucose and 16 g of agar in 1 l of water. The antibacterial activity was expressed by minimum growth inhibition concentration (MIC).
BS: Eacillus subtilis No. 10707

[3] = system: Candida albicans ATCC 10231; test: Antibacterial activity test (agar dilution method); assay type: cell-based; conditions: ATCC10231, pH 7, Candida albicans ATCC 10231, read-out: Minimum growth inhibition concentration (MIC), CA
Method: as §1, §2
CA: Candida albicans ATCC 10231

T cell growth = T cell growth inhibition test by mixed mouse lymphocyte culture reaction; assay type: cell-based; conditions: 72 hours, 37° C., [^3 H]-thymidine incorporation, AKR spleen / B10.BR lymph node cells
Method: T Cell Growth Inhibition Test by Mixed Mouse Lymphocyte Culture Reaction
The spleen was excised aseptically from an AKR mouse (Japan SLC Co., Ltd.) and made into a single cell suspension. The suspension was mixed with mitomycin C (MMC) (Kyowa Hakko Kogyo Co., Ltd.) (final concentration, 50 μg/ml) and cultured at 37° C. for 30 minutes. After the culturing, the cells were washed three times with a solution (HBSS) prepared by adding 2.5% fetal calf serum (FCS, Gibco Co.) to Hanks' balanced salt solution (Gibco Co.) and then adjusted to a density of 1×10^7 cells/ml.
A 50 μl portion of B10.BR mouse (Japan SLC Co., Ltd.) lymph node cell suspension (containing 1.5×10^5 cells), 50 μl of AKR mouse spleen cell suspension (containing 5×10^5 cells) and 100 μl of radicicol solution having each test concentration were added to each well of a 96 well microtiter plate and cultured at 37° C. for 72 hours in a CO2 incubator. A 1.0 μCi portion of [^3 H]-thymidine was added 18 hours before the completion of the culturing. After completion of the culturing, the cells were trapped on a filter paper using a cell harvester and dried, and then a toluene scintillator was added thereto to measure the amount of radioactivity of [^3 H]-thymidine incorporated into cells using a scintillation counter (test group). As a control group, the same culturing was carried out without adding the solution of Compound (I) and then the amount of radioactivity of [^3 H]-thymidine incorporated into cells was measured. The T cell growth inhibition ratio was calculated based on the following formula, from which the concentration of each test compound that inhibits 50% of the growth (IC50 was calculated. [formula] (In the above formula, the radioactivity in MMC-treated AKR mouse means the radiation dose of [^3 H]-thymidine incorporated into MMC-treated AKR mouse spleen cells, and the radioactivity in B10.BR mouse means the radiation dose of [^3 H]-thymidine incorporated into B10.BR mouse lymph node cells.)

[4] = system: Enterococcus hirae ATCC 10541; assay type: cell-based; conditions: pH 7
Method: as §1, §2
EH: Enterococcus hirae ATCC 10541

[5] = HeLa S3, 72 hours, 37° C., Neutral Red

| SMILES | IC50 [1] | IC50 (HeLa S3 cells; [5]) | MIC [2] | IC50 (T cell growth) | also measured |
| --- | --- | --- | --- | --- | --- |
| C[C@@H]1C[C@H]2O[C@@H]2/C=C\C=C\C(=NOCCCN=[N+]=[N-])Cc2c(Cl)c(O)cc(O)c2C(=O)O1 [Compound 14] | < 50 nM | 50 nM | – | – | – |
| CC(=O)Oc1cc(OC(C)=O)c2c(c1Cl)CC(=O)C=CC=CC(Cl)C(OS(=O)OC1CC(C)OC(=O)c3c(OC(C)=O)cc(OC(C)=O)c(Cl)c3CC(=O)C=CC=CC1Cl)CC(C)OC2=O (centres unmarked) [Compound 7] | – | 1500 nM | – | – | – |
| C[C@@H]1C[C@@H](OC=O)C(Cl)/C=C\C=C\C(=O)Cc2c(Cl)c(O)cc(O)c2C(=O)O1 (some centres unmarked) [Compound 1] | – | – | 83 µg/mL (≈ 193 µM) | – | increased life span (ILS) (P388 leukemia): 38%; T/C (tumor volume ratio) (sarcoma 180 solid tumor): 51% |
| CC(=O)Oc1cc(OC(C)=O)c2c(c1Cl)CC(=O)/C=C/C=C\C(Cl)[C@H](OC=O)C[C@@H](C)OC2=O (some centres unmarked) [Compound 6] | – | 5000 nM | – | – | – |
| C[C@@H]1C[C@H]2O[C@@H]2/C=C\C=C\C(=O)Cc2c(Cl)c(O[Si](C)(C)C(C)(C)C)cc(O[Si](C)(C)C(C)(C)C)c2C(=O)O1 [Compound 10] | 150 nM | 3200 nM | – | – | – |
| C[C@@H]1C[C@H]2O[C@@H]2/C=C\C=C\C(=O)Cc2c(Cl)c(O)cc(O)c2C(=O)O1 [Radicicol, radicicol] | 180 nM | – | 83 µg/mL (≈ 228 µM) | 150 nM | IC50 (HeLa S3 cells; HeLa S3, 72 h): 6700 nM; increased life span (ILS) (P388 leukemia): 27%; T/C (tumor volume ratio) (sarcoma 180 solid tumor): 88%; MIC [3]: 20 µg/mL (≈ 54.8 µM) |
| COCON=C1/C=C/C=C\[C@H]2O[C@@H]2C[C@@H](C)OC(=O)c2c(O)cc(O)c(Cl)c2C1 [Compound 13] | – | 20 nM | – | – | – |
| C[C@@H]1C[C@H]2O[C@@H]2/C=C\C=C\C(=NO)Cc2c(Cl)c(O)cc(O)c2C(=O)O1 [Compound 8] | 20 nM | 90 nM | – | 10 nM | – |
| C[C@@H]1C[C@@H](O)C(Cl)/C=C\C=C\C(=O)Cc2c(Cl)c(O)cc(O)c2C(=O)O1 (some centres unmarked) [Compound 2] | – | – | – | – | T/C (tumor volume ratio) (sarcoma 180 solid tumor): 50% |
| C[C@@H]1C[C@@H](O)C(Br)/C=C\C=C\C(=O)Cc2c(Cl)c(O)cc(O)c2C(=O)O1 (some centres unmarked) [Compound 3] | – | – | 83 µg/mL (≈ 186 µM) | 300 nM | increased life span (ILS) (P388 leukemia): 46% |
| CC1CC(OS(=O)OC2CC(C)OC(=O)c3c(O)cc(O)c(Cl)c3CC(=O)C=CC=CC2Cl)C(Cl)C=CC=CC(=O)Cc2c(Cl)c(O)cc(O)c2C(=O)O1 (centres unmarked) [Compound 4] | – | 6000 nM | 1.3 µg/mL (≈ 1.53 µM) | – | increased life span (ILS) (P388 leukemia): 42%; T/C (tumor volume ratio) (sarcoma 180 solid tumor): 39%; MIC [3]: 2.6 µg/mL (≈ 3.06 µM); Minimum growth inhibition concentration (MIC), EH [4]: 2.6 µg/mL |
| CCCCCCCCCCCCCCCC(=O)Oc1cc(OC(=O)CCCCCCCCCCCCCCC)c2c(c1Cl)CC(=O)/C=C/C=C\C(Br)[C@H](O)C[C@@H](C)OC2=O (some centres unmarked) [Compound 19] | – | – | – | 150 nM | – |
| C[C@@H]1C[C@H]2O[C@@H]2/C=C\C=C\C(=NO)Cc2c(Cl)c(O[Si](C)(C)C(C)(C)C)cc(O[Si](C)(C)C(C)(C)C)c2C(=O)O1 [Compound 11] | 20 nM | – | – | – | IC50 (HeLa S3 cells; HeLa S3, 72 h): 120 nM |
| CON=C1/C=C/C=C\[C@H]2O[C@@H]2C[C@@H](C)OC(=O)c2c(O)cc(O)c(Cl)c2C1 [Compound 9] | < 50 nM | 50 nM | 52 µg/mL (≈ 132 µM) | 20 nM | MIC [3]: 6.5 µg/mL (≈ 16.5 µM) |
